Source: ChEMBL document CHEMBL1938296, “Steroidal C-21 heteroaryl thioethers (Part 2): discovery of orally bioavailable selective glucocorticoid receptor modulators (dissociated steroids)” (Bioorg Med Chem Lett, 2012)
pEC50, pIC50: −log10 of the molar value. Calls of active or inactive are those of the source. No cut-off for these calls is given here.

Columns and labels:
[1] = molecular target: T1, Glucocorticoid receptor (Homo sapiens, UniProt P04150); experiment: Transrepression activity at glucocorticoid receptor in human H292 cells assessed as inhibition of TNF-stimulated IL-8 production; type: cell-based
T1 sequence (P04150 whole entry): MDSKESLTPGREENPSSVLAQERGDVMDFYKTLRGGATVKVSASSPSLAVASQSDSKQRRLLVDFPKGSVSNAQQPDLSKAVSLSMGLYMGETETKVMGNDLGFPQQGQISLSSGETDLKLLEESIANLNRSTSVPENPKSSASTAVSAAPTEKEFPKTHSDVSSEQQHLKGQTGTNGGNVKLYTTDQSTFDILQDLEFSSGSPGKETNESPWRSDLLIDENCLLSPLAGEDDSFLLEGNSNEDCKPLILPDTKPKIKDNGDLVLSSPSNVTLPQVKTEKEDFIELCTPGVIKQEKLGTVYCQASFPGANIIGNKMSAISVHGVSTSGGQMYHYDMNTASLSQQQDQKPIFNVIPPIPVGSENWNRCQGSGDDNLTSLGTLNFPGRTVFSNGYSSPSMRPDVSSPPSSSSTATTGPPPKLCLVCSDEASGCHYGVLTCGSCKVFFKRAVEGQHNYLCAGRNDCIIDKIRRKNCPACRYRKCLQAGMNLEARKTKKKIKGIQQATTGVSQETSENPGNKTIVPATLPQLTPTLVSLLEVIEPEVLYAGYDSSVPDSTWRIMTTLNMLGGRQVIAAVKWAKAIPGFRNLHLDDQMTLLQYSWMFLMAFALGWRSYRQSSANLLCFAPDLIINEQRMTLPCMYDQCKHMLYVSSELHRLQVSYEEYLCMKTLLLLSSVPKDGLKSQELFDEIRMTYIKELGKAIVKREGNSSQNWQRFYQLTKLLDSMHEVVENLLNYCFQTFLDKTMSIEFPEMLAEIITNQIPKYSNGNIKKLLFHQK

[2] = molecular target: T2, Glucocorticoid receptor (Rattus norvegicus, UniProt P06536); experiment: Transactivation of glucocorticoid receptor in rat H42E cells assessed as induction of TAT measuring degradation of tyrosine to p-hydroxy phenyl pyruvate; type: cell-based; details: read-out: IC50 (the source's name)
T2 sequence (P06536 whole entry): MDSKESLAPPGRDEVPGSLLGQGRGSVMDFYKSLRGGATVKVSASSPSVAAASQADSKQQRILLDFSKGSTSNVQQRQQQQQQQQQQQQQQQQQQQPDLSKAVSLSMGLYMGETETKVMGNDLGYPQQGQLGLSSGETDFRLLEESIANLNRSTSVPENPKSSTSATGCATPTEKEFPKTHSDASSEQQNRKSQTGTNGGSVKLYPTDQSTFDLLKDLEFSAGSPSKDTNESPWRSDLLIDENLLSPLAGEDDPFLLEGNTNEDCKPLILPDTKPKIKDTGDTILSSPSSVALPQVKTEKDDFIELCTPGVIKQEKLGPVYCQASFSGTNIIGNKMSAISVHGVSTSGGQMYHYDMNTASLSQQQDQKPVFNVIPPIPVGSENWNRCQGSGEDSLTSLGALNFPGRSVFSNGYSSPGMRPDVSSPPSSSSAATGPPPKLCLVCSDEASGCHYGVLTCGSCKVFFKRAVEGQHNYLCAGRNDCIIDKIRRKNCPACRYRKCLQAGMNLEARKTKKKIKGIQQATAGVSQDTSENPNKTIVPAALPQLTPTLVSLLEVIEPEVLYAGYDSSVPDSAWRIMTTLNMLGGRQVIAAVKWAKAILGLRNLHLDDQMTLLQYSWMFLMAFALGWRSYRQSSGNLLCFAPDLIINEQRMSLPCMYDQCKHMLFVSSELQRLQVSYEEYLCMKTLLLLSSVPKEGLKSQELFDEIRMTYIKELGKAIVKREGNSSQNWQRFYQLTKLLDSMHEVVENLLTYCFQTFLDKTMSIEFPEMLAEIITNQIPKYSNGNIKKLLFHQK

[3] = molecular target: T2, Glucocorticoid receptor; experiment: Transactivation of glucocorticoid receptor in rat H42E cells assessed as induction of TAT measuring degradation of tyrosine to p-hydroxy phenyl pyruvate at 1 uM relative to prednisolone; type: cell-based; details: read-out: Efficacy
[4] = molecular target: T1, Glucocorticoid receptor; experiment: Transactivation of glucocorticoid receptor in human HepG2 cells assessed as induction of TAT measuring degradation of tyrosine to p-hydroxy phenyl pyruvate at 1 uM relative to untreated control; type: cell-based; details: hepg2, 1 µM
[5] = test system: Rattus norvegicus; experiment: Antiinflammatory activity against Brown Norway rat allergic lung inflammation model assessed as total cell inhibition at 10 mg/kg, po for 3 days; type: functional; design: scale not given: the % may be the effect or the level left
[6] = test system: Rattus norvegicus; experiment: Toxicity in Brown Norway rat allergic lung inflammation model assessed as decrease in thymus weight at 10 mg/kg, po for 3 days; type: organism-based; design: dose 10 mg/kg, route oral; scale not given: the % may be the effect or the level left; details: in vivo, 72 h
[7] = AUC in Brown Norway rat at 10 mg/kg, po; type: ADME, organism-based; design: dose 10 mg/kg, route oral; details: plasma
[8] = test system: Rattus norvegicus; experiment: Antiinflammatory activity against Brown Norway rat allergic lung inflammation model assessed as total cell inhibition at 0.3 to 30 mg/kg, po for 10 days relative to prednisolone; type: functional, organism-based
[9] = test system: Rattus norvegicus; experiment: Toxicity in Brown Norway rat allergic lung inflammation model assessed as decrease in thymus weight at 0.3 to 30 mg/kg, po for 10 days; type: organism-based; design: dose 0.3-30 mg/kg, route oral; details: in vivo, 240 h
[10] = test system: Rattus norvegicus; experiment: Antiinflammatory activity in ovalbumin-induced allergic Brown Norway rat lung inflammation model assessed as inhibition of forced vital capacity at 3 mg/kg, po qd administered 3 days before ovalbumin-challenge measured 24 hrs of post ovalbumin challenge; type: functional
[11] = test system: Rattus norvegicus; experiment: Antiinflammatory activity in ovalbumin-induced allergic Brown Norway rat lung inflammation model assessed as inhibition of forced vital capacity at 10 mg/kg, po qd administered 3 days before ovalbumin-challenge measured 24 hrs of post ovalbumin challenge; type: functional
[12] = test system: Rattus norvegicus; experiment: Antiinflammatory activity in ovalbumin-induced allergic Brown Norway rat lung inflammation model assessed as inhibition of forced vital capacity at 30 mg/kg, po qd administered 3 days before ovalbumin-challenge measured 24 hrs of post ovalbumin challenge; type: functional
[13] = test system: Rattus norvegicus; experiment: Antiinflammatory activity in po dosed ovalbumin-induced allergic Brown Norway rat lung inflammation model assessed as inhibition of forced vital capacity administered 3 days before ovalbumin-challenge measured 24 hrs of post ovalbumin challenge; type: functional
[14] = test system: Rattus norvegicus; experiment: Antiinflammatory activity in rat assessed as inhibition of LPS-induced TNF-alpha secretion up to 50 mg/kg, po; type: functional, organism-based; design: dose 50 mg/kg
[15] = molecular target: T3, Progesterone receptor (Homo sapiens, UniProt P06401); experiment: Inhibition of human progesterone receptor
T3 sequence (P06401 whole entry): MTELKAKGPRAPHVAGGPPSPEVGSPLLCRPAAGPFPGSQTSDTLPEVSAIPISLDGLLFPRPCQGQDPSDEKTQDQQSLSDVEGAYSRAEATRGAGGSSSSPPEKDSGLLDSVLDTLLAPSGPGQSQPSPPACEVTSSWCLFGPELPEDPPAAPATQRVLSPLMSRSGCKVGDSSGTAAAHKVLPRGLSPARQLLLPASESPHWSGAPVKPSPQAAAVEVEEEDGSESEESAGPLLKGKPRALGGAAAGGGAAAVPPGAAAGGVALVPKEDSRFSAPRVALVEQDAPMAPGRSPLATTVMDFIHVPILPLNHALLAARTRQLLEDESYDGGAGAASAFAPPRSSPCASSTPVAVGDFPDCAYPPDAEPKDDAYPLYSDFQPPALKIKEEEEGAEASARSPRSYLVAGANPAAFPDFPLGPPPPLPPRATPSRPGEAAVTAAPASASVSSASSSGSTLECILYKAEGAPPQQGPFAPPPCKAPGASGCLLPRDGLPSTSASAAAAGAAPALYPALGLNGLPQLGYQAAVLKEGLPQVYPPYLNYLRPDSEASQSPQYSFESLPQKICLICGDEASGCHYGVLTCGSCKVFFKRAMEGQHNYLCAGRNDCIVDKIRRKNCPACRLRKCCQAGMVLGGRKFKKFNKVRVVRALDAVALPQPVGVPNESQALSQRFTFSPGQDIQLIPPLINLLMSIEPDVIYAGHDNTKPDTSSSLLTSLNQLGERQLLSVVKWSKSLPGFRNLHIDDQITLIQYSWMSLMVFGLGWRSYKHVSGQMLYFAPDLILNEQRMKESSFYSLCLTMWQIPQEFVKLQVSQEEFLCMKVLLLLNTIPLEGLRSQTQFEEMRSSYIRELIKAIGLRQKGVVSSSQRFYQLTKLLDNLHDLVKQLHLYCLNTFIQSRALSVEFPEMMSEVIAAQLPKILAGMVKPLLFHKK

[16] = molecular target: T1, Glucocorticoid receptor; experiment: Inhibition of human glucocorticoid receptor

SMILES	pIC50 [1]	pEC50 [2]	Emax at 1 µM [3]	Efficacy [4]	Activity [5]	Activity [6]	AUC [7]	Activity [8]	Activity [9]	inhibition in vivo at 3 mg/kg [10]	inhibition in vivo at 10 mg/kg [11]	inhibition in vivo at 30 mg/kg [12]	ED50 [13]	inhibition [14]	pIC50 [15]	pIC50 [16]
Cn1c(SCC(=O)[C@@]2(O)CC[C@H]3[C@@H]4CCC5=CC(=O)C=C[C@]5(C)[C@H]4[C@@H](O)C[C@@]32C)nc2ccccc21	7.33	6.63	4%	11%	58%	4%	960 ng·h/mL	Active	Toxic	23%	50%	71%	10 mg/kg	Active	5.86	8.14
C[C@]12C=CC(=O)C=C1CC[C@@H]1[C@@H]2[C@@H](O)C[C@@]2(C)[C@H]1CC[C@]2(O)C(=O)CO [PREDNISOLONE]	–	–	100%	81%	56%	53%	1250 ng·h/mL	–	–	43%	81%	111%	5 mg/kg	–	–	–
